Where “and” joins values, the source holds several entries; their conditions need not be identical. Identical values can stand only once.
Tests used:
[1] = in vivo; cited from earlier work
[2] = Intravaginal 1,25-(OH)2D3 in raised cows: 1,25-(OH)2D3 concentration in plasma, RIA (Example 2); format: in vivo, cow
Experimental: (§1) Hereinafter, the present invention will further be described with reference to Examples and Comparative Example. However, the present invention is not intended to be limited to them by any means. In the examples described below, a 1,25-(OH)2D3 concentration in plasma was determined using a radioimmunoassay kit (1,25-(OH)2D RIA kit, Immunodiagnostic Systems Limited, UK). The Ca concentrations, inorganic phosphorus (iP) concentrations, and magnesium (Mg) concentrations in plasma and urine were determined by orthocresolphthalein complexone (O-CPC), molybdenum (Mo), and xylidyl blue methods, respectively. A creatinine concentration in urine was determined by a Jaffe method. Calcium (Ca), inorganic phosphorus (iP), and magnesium (Mg) concentrations in urine were indicated in the ratios relative to creatinine (Cre) (Ca/Cre, iP/Cre, and Mg/Cre, respectively).
(§2) For confirming the absorption in the vagina of 1,25-(OH)2D3 administered to the vaginal cavities of cows, biochemical changes of 1,25-(OH)2D3 and minerals in blood were observed after the intravaginal administration of 1,25-(OH)2D3 to cows.
(§3) Six Holstein cows (3 to 6 months olds, 97 to 118 kg in body weights) that were clinically healthy were raised and domesticated for at least 1 week in the same fence by providing them with feed (1.56 kg of grass, 0.55 kg of formula feed, and 1.44 kg of alfalfahey cube in dried forms) having a daily mineral intake of 21 g of Ca, 13 g of P, and 4 g of Mg that satisfies requirements stipulated by NRC (National Research Council) on a daily basis and free water drinking.
(§4) To each of five of the cows, 1,25-(OH)2D3 (crystal manufactured by Mercian Corporation dissolved in 99% ethanol to bring its concentration to 1 mg/mL and cryopreserved at −20° C. until just before use) was intravaginally administered at 1 μg per kg of body weight.
Intravaginal administration was performed using a 14-gauge, 64 mm-long cannula with an indwelling needle for injection (Surflo, Terumo Co. Ltd., Tokyo) and a plastic pump (Top Plastic Syringe, Top Surgical Taiwan Corporation, Taiwan). […]

[3] = Intravaginal 1,25-(OH)2D3 in raised cows: mineral (Ca, iP, Mg) concentrations in plasma (Example 2); format: in vivo, cow
Experimental: as §1, §2, §3, §4
Intravaginal administration was performed using a 14-gauge, 64 mm-long cannula with an indwelling needle for injection (Surflo, Terumo Co. Ltd., Tokyo) and a plastic pump (Top Plastic Syringe, Top Surgical Taiwan Corporation, Taiwan).
To the other cow, 3.0 mL of 99% ethanol was administered as a control.
A heparinized blood sample was collected from a jugular vein immediately before administration (0 hour) and at 2, 6, 12, 24, 48, 72, and 96 hours after administration.
The biochemical value of blood was indicated as a means±standard deviation. For observing the effect of the intravaginal administration of 1,25-(OH)2D3, repeated measures analysis of variance was used. When the effect was significant, a statistical test was conducted by the Dunnett's multiple comparison between the value at 0 hour and each value after administration. The significant difference was set to P<0.05.

[4] = 0 hour, intravaginal 1 μg/kg, n=5

In the case of C=C1/C(=C\C=C2/CCC[C@]3(C)[C@@H]([C@H](C)CCCC(C)(C)O)CC[C@@H]23)C[C@@H](O)C[C@@H]1O [1,25-(OH)2D3, 1,25-dihydroxyvitamin D3], the “bioavailability of 1,25-(OH)2D3” value [1] is listed as 62% and 67%, the concentration at 6 h ([2]; female, Holstein, bovine, plasma, other: intravaginal, 6 hours after intravaginal 1 μg/kg, n=5, p<0.01 vs 0 hour) is listed as 1.97 ± 1.14 ng/mL and the concentration at 0 h ([2]; female, Holstein, bovine, plasma, other: intravaginal, before administration (0 hour), intravaginal 1 μg/kg, n=5 raised cows, mean±SD) is listed as 0.0883 ± 0.0203 ng/mL. The “absorption from the vaginal wall of a cow” value ([2]; intravaginal 1 μg/kg, sudden rise in plasma at 2 hours) was “confirmed”, the Mg in plasma [3, 4] was 2.1 ± 0.1 mg/dL and the iP in plasma [3, 4] was 7.3 ± 0.5 mg/dL. It also gave an iP in plasma ([3]; 6 hours after intravaginal 1 μg/kg, P<0.05 vs 0 hour) of 8.1 ± 0.8 mg/dL, an iP in plasma ([3]; 24 hours (start of 24 to 96 hours) after intravaginal 1 μg/kg, P<0.01) of 9.1 ± 0.7 mg/dL and a Mg in plasma ([3]; 24 hours after intravaginal 1 μg/kg, P<0.01 vs 0 hour) of 1.8 ± 0.1 mg/dL. The “Ca concentration in plasma, maximum value” ([3]; 24 hours after intravaginal 1 μg/kg, n=5, significantly (P<0.01) high at 12 to 72 hours) was 11.96 ± 0.7 mg/dL, the Mg in plasma ([3]; 48 hours after intravaginal 1 μg/kg, P<0.01 vs 0 hour) was 1.8 ± 0.1 mg/dL and the iP in plasma ([3]; 96 hours (end of 24 to 96 hours) after intravaginal 1 μg/kg, P<0.01) was 8.6 ± 0.6 mg/dL. The “Ca concentration in plasma” value ([3]; before administration, intravaginal 1 μg/kg, n=5) was 10.4 ± 0.4 mg/dL.
